From patent publication EP0414895A1, “OROTATE OF $g(a)-AMINO-$g(b)-PHENYL-BUTYRIC ACID” (NAUCHNO-PROIZVODSTVENNOE OBIEDINENIE "BIOLAR", priority 1989, dated 1990)
Structures can show the parent of a compound that is named as a salt.

Legend:
[1] = system: Ratten; experiment: Cold stress at 2°C, rectal temperature, rats; assay type: in vivo; conditions: for Rektaltemperatur nach I Stunde an der Kälte: 2°C; for Rektaltemperatur nach I Stunde: 1 h after dosing at room temperature
Method: Aus den in Tabellen angeführten Ergebnissen ist zu ersehen, dass die einmalige Einführung der neuen Verbindung die Schwimmdauer der Mäuse und Ratten wesentlich nicht beeinflusst. Nach der 20 Tage langen chronischen Einführung der neuen Verbindung wird die Schwimmdauer hingegen zuverlässig grösser - (Tabelle I7) um das I,5fache im kalten Wasser und um das 2,5fache bei einer Temperatur von 40°C (Tabelle I9) im Vergleich zu γ -Amino- β -phenylbuttersäurehydrochlorid. Auf diese Weise erhöht die chronische Einführung der neuen Verbindung wesentlich die physische Toleranz der Tiere. Ausserdem wurde auch die Toleranz der Tiere gegen den Kältestress bestimmt. Die Untersuchung wurde bei einer Temperatur von 2°C an Mäusen und Ratten durchgeführt, indem jedes Tier abgesondert in der Einzelkammer von I5 x 20 x 20 cm Ausmass untergebracht wurde. Es wurde die Rektaltemperatur vor der Einführung der neuen Verbindung, des γ -Amino- β - phenylbuttersäurehydrochlorids und der physiologischen Kontrollösung eine Stunde nach der Einführung bei Zimmertemperatur und nach I Stunde und 2 Stunden in der Kälte gemessen. Die Versuche wurden an einer Mäusengruppe (I0 Stück) (Tabelle 20) und an einer Rattengruppe (8 Stück) (Tabelle 2I) bei der einmaligen und chronischen Einführung innerhalb von 22 bzw. I6 Tagen einmal pro Tag angestellt.

[2] = Habituation study: body mass; assay type: in vivo, Mäuse; conditions: 75 mg/kg bzw. 48 mg/kg i.p. twice daily, 15 to 20 days
Method: (§1) Zur Untersuchung der Gewöhnung an die Wirkung der erfindungsgemässen Verbindung wurde die Dynamik der Benehmungseffekte an Mäusen beiderlei Geschlechts untersucht. In jeder Gruppe waren je I2 bis I8 Tiere. Die erfindungsgemässe Verbindung und γ -Amino- β - -phenylbuttersäurehydrochlorid wurden intraperitoneal in Dosen von 75 mg/kg bzw. 48 mg/kg zweimal am Tag eingeführt. Es wurden die Körpermasse, der Einfluss auf die motorische Aktivität (im Aktometer) und auf die emotionelle Reaktivität aud dem Wege der elektrischen Schmerzreizung untersucht. Die Tiere wurden innerhalb von 15 bis 20 Tagen untersucht. […] Der sedative Effekt der beanspruchten Verbindung war während der ganzen Versuchsperiode aufrechterhalten (Tabelle 7).

[3] = system: Ratten; experiment: Natriumäthaminal intoxication, sleep duration, rats; assay type: in vivo
Method: (§2) Ausserdem wurde die Wirkung der beanspruchten Verbindung auf die durch Natriumäthaminal erzeugte Intoxikation untersucht. Die Versuche wurden an männlichen Mäusen und Ratten in Gruppen zu 8 bis I0 Tieren angestellt. Natriumäthaminal wurde intraperitoneal in einner Dosis von I00 mg/kg I5 min nach der enteralen Verabreichung der beanspruchten Verbindung oder der Kontrollarzneimittel eingeführt. Es wurde die einmalige und chronische Einwirkung (während I2 bis I4 Tage einmal täglich) von der neuen Verbindung, γ -Amino- β - -phenylbuttersäurehydrochlorid und Pyrazetam untersucht. Es wurde die Dauer der Seitenlage - des Schlafs der Tiere bestimmt. Die Ergebnisse dieser Untersuchung sind in Tabelle 23 (für Mäuse) und 24 (für Ratten) angeführt.

[4] = system: Mäuse; experiment: Habituation study: motor activity in actometer on repeated dosing; assay type: in vivo
Method: as §1

[5] = system: Mäuse; experiment: Motor and orientation activity in photoelectric actometer; assay type: in vivo; conditions: counted 60 min from 10 min after dosing
Excerpt: Zur Bestimmung der sedativen Wirksamkeit wurde die motorische und Orientierungsaktivität und die motorische Fähigkeit in Versuchen an Mäusen und Ratten untersucht.
Den Versuchstieren wurden die beanspruchte Verbindung, γ -Amino- β -phenylbuttersäurehydrochlorid und Pyrazetam eingeführt. Als Kontrolle diente die physiologische Lösung (0,9%ige NaCl-Lösung). Die Untersuchungen wurden an I0 bis I2 erwachsenen Tieren (Mäuse, Ratten) durchgeführt.
Bei der Bestimmung der motorischen und Orientierungsaktivität wurde jede Maus in einer Einzelkamner des photoelektrischen Aktometers untergebracht. Die motorische und Orientierungsaktivität wurde nach der Zahl der Impulse bestimmt, die beim Berühren der Aktometerkontakte durch das Tier entstanden. Das Zählen der Im pulse wurde I0 min nach der intraperitonealen Einführung der genannten Verbindungen begonnen und dauerte innerhalb von 60 min. Die Angaben sind in der Tabelle I angeführt.

[6] = system: Mäuse; experiment: Habituation study: electric pain stimulation thresholds on repeated dosing; assay type: in vivo
Excerpt: In einer Kammer von 20 x 20 x 25 cm Ausmass, deren Boden - ein Metallgitter aus Stangen darstellt, wurde ein Paar Tiere untergebracht (männliche Mäuse) und es wurde der Wechselstrom durchgelassen. Die Spannung wurde dosenartig auf 5 V solange erhöht, bis der Strom das Piepsen (die Schwelle der emotionellen Reaktivität) und die Schlägerei der Tiere (die Schwelle der Aggressivität) auslöste. Jede Spannungsgrösse wurde innerhalb von 5 sec zweimal in einem Zeitabstand von 20 bis 50 Sekunden aufrechterhalten. Die Kontrolle des Benehmens der Tiere begann man I0 Minuten nach der Einführung der oben erwähnten Verbindungen. Die Angaben sind in Tabellen 3, 4 angeführt.
as §1

[7] = system: Mäuse; experiment: Natriumäthaminal intoxication, sleep duration, mice; assay type: in vivo
Method: as §2

[8] = system: Mäuse; experiment: Conflict situation (punished water intake); assay type: in vivo; conditions: 45 to 120 min before test
Excerpt: Es wurde auch die Wirkung der erfindungsgemässen Verbindung unter Bedingungen einer Konfliktsituation an männlichen Mäusen (Gruppe aus I0 Mäusen) untersucht. Vorläufig wurde den Mäusen das Wasser für 48 Stunden entzogen, danach wurden ihnen 45 bis I20 Minuten vor dem Versuch die Verbindungen intraperitoneal eingeführt und die Tiere wurden in der Kammer untergebracht, wo sich eine Wassertränke befand. Im Augenblick der Wassereinnahme bekam es einen elektrischen Schlag, der am Zähler registriert wurde. In der Prüfkammer befand sich das Tier innerhalb von 3 Minuten. Für diese Zeit wurden die Zahl der Wassereinnahmen sowie die Lazenzperiode - die Zeit zwischen dem Unterbringen des Tiers in der Kammer und der ersten Wassereinnahme - registriert. Die durchschnittlichen Angaben sind in der Tabelle 5 angeführt.

[9] = system: Ratten; experiment: Swimming test at 2°C, rats; assay type: in vivo
Excerpt: Der Einfluss der beanspruchten Verbindung auf die physische Toleranz der Tiere wurde nach dem Schwimmtest der Mäuse und Ratten untersucht. Die Versuche wurden in einer Wanne von […] Fläche durchgeführt. Die Tiergruppe (8 bis I0 Mäuse oder Ratten) wurde ins Wasser gebracht und es wurde die Zeit der Schwimmfähigkeit bestimmt. Die neue Verbindung und γ -Amino- β - -phenylbuttersäurehydrochlorid wurden enteral und intraperitoneal I Stunde oder 3 Stunden vor dem Schwimmbeginn eingeführt. Die Untersuchung wurde sowohl nach der einmaligen als auch nach der chronischen (innerhalb von 20 Tagen einmal täglich) Einführung der genannten Verbindungen durchgeführt. Die Versuche wurden bei 3 Temperaturen angestellt: 2°C (Tabelle I7), 25°C (Tabelle I8) und 40°C (Tabelle I9).

[10] = 50 mg/kg chronic, 14 days + Natriumäthaminal 100 mg/kg i.p.
[11] = 50 mg/kg single + Natriumäthaminal 100 mg/kg i.p.
[12] = day 1, 48 mg/kg i.p. twice daily
[13] = day 5, 48 mg/kg i.p. twice daily
[14] = day 10, 48 mg/kg i.p. twice daily
[15] = day 15, 48 mg/kg i.p. twice daily
[16] = day 1, 75 mg/kg i.p. twice daily
[17] = day 5, 75 mg/kg i.p. twice daily
[18] = day 10, 75 mg/kg i.p. twice daily
[19] = day 15, 75 mg/kg i.p. twice daily

## NCC(CC(=O)O)c1ccccc1 (stereo not drawn) [γ-Amino-β-phenylbutter-säurehydrochlorid, γ -Amino- β -phenylbuttersäurehydrochlorid, reference compound]
[1]; 35 mg/kg chronic, 16 days
  Rektaltemperatur nach I Stunde an der Kälte: 23,2±0,2
  Rektaltemperatur nach I Stunde: 30,4±0,3
[2]
  Körpermasse: veränderte sich wesentlich nicht
[3]; [10]
  Schlafdauer: 290,0±17 min
[3]; [11]
  Schlafdauer: 288,6±27 min
[4]; [12]
  Anzahl der Impulse im Aktometer innerhalb von 45 min: 75±19
[4]; [13]
  Anzahl der Impulse im Aktometer innerhalb von 45 min: 223±36
[4]; [14]
  Anzahl der Impulse im Aktometer innerhalb von 45 min: 257±38
[4]; [15]
  Anzahl der Impulse im Aktometer innerhalb von 45 min: 283±47
[5]; 16 mg/kg i.p.
  Anzahl der Impulse im Aktometer: 368±51
[5]; 32 mg/kg i.p.
  Anzahl der Impulse im Aktometer: 238±28
[5]; 40 mg/kg i.p.
  Anzahl der Impulse im Aktometer: 158±21
[6]; [12]
  Spannung in V, die Schwelle der Aggressivität: 29±2 V
  Spannung in V, die Schwelle der emotionellen Reaktivität: 24±2 V
[6]; [13]
  Spannung in V, die Schwelle der Aggressivität: 27±4 V
  Spannung in V, die Schwelle der emotionellen Reaktivität: 23±2 V
[6]; [14]
  Spannung in V, die Schwelle der Aggressivität: 26±3 V
  Spannung in V, die Schwelle der emotionellen Reaktivität: 20±2 V
[6]; [15]
  Spannung in V, die Schwelle der Aggressivität: 24±2 V
[7]; 35 mg/kg chronic, 12 days + Natriumäthaminal 100 mg/kg i.p.
  Schlafdauer: 390,0±37 min
[7]; 35 mg/kg single + Natriumäthaminal 100 mg/kg i.p.
  Schlafdauer: 274,3±32 min
[8]; 16 mg/kg i.p.
  Latenzperiode: 36,4±6,8 sec
[9]; 35 mg/kg chronic, 20 days
  Schwimmzeit, Ratten: 328,8±34
[9]; 35 mg/kg single
  Schwimmzeit, Ratten: 304,3±29

## γ -Amino- β -phenylbuttersäureorotat [Erfindungsgemässe Verbindung]
[1]; 50 mg/kg chronic, 16 days
  Rektaltemperatur vor der Einführung der Verbindung: 30,7±0,2
  Rektaltemperatur nach I Stunde an der Kälte: 27,0±0,3
[1]; 50 mg/kg single
  Rektaltemperatur vor der Einführung der Verbindung: 30,4±0,3
  Rektaltemperatur nach I Stunde: 30,9±0,3
[2]
  Körpermasse: veränderte sich wesentlich nicht
[3]; 25 mg/kg single + Natriumäthaminal 100 mg/kg i.p.
  Schlafdauer: 314,8±22 min
[3]; [10]
  Schlafdauer: 167,4±23 min
[3]; [11]
  Schlafdauer: 306,4±16 min
[4]; [16]
  Anzahl der Impulse im Aktometer innerhalb von 45 min: 125±25
[4]; [17]
  Anzahl der Impulse im Aktometer innerhalb von 45 min: 108±21
[4]; [18]
  Anzahl der Impulse im Aktometer innerhalb von 45 min: 109±47
[4]; [19]
  Anzahl der Impulse im Aktometer innerhalb von 45 min: 123±17
[5]; 25 mg/kg i.p.
  Anzahl der Impulse im Aktometer: 322±43
[5]; 50 mg/kg i.p.
  Anzahl der Impulse im Aktometer: 208±27
[5]; 75 mg/kg i.p.
  Anzahl der Impulse im Aktometer: 123±18
[6]; [16]
  Spannung in V, die Schwelle der Aggressivität: 30±3 V
  Spannung in V, die Schwelle der emotionellen Reaktivität: 22±2 V
[6]; [17]
  Spannung in V, die Schwelle der Aggressivität: 29±2 V
  Spannung in V, die Schwelle der emotionellen Reaktivität: 23±2 V
[6]; [18]
  Spannung in V, die Schwelle der Aggressivität: 29±2 V
  Spannung in V, die Schwelle der emotionellen Reaktivität: 24±3 V
[6]; [19]
  Spannung in V, die Schwelle der Aggressivität: 34±3 V
  Spannung in V, die Schwelle der emotionellen Reaktivität: 22±2 V
[7]; 50 mg/kg chronic, 12 days + Natriumäthaminal 100 mg/kg i.p.
  Schlafdauer: 178,4±14 min
[7]; [11]
  Schlafdauer: 261,3±21 min
[8]; 25 mg/kg i.p.
  Anzahl der Wassereinnahmen für 3 Minuten: 5,6±0,7
  Latenzperiode: 52,4±20 sec
[9]; 30 mg/kg chronic, 20 days
  Schwimmzeit, Ratten: 390,0±56
